Reference: PMC11995724, “Antibiotic target discovery by integrated phenotypic and activity-based profiling of electrophilic fragments” (Cell chemical biology, 2025)

Experiment: in vitro
Details: human, hek293t cells
In the case of `CC(C)NC(=O)C(C#N)=Cc1cccc(O)c1` [8-A22, 2-cyano-3-(3-hydroxyphenyl)-N-(propan-2-yl)prop-2-enamide], the viability at 48 h, 25 µM is reported as 67.3%. Work on `N#CC(=Cc1ccc2c(c1)OCCO2)C(=O)Nc1nccs1` [8-B03, 2-cyano-3-(2,3-dihydro-1,4-benzodioxin-6-yl)-N-(1,3-thiazol-2-yl)prop-2-enamide] yielded a viability at 48 h, 25 µM of 115%. Work on `COCC(C)n1c(C)cc(C=C(C#N)C(=O)NS(C)(=O)=O)c1C` (stereo not drawn) [8-B04, 2-cyano-N-methanesulfonyl-3-[1-(1-methoxypropan-2-yl)-2,5-dimethyl-1H-pyrrol-3-yl]prop-2-enamide] yielded a viability at 48 h, 25 µM of 94.8%. In the case of `N#CC(=Cc1ccc(O)c(O)c1)C(=O)Nc1ccccc1F` [8-B05, 2-cyano-3-(3,4-dihydroxyphenyl)-N-(2-fluorophenyl)prop-2-enamide], the viability at 48 h, 25 µM is reported as 92.9%. For `N#CC(=Cc1cccc(F)c1F)C(=O)NCc1ccccc1` [8-B06, N-benzyl-2-cyano-3-(2,3-difluorophenyl)prop-2-enamide], the viability at 48 h, 25 µM was 27.1%. Compound `N#CC(=Cc1ccc(Cl)c(Cl)c1)C(=O)NCc1ccccc1` [8-B07, N-benzyl-2-cyano-3-(3,4-dichlorophenyl)prop-2-enamide] has a viability at 48 h, 25 µM of 105%. Work on `N#CC(=Cc1ccc([N+](=O)[O-])c(Cl)c1)C(=O)NC1CCCCC1` [8-B08, 3-(3-chloro-4-nitrophenyl)-2-cyano-N-cyclohexylprop-2-enamide] yielded a viability at 48 h, 25 µM of 0.92%. `CCOc1ccccc1C=C(C#N)C(=O)Nc1ccc(Cl)cc1` [8-B09, N-(4-chlorophenyl)-2-cyano-3-(2-ethoxyphenyl)prop-2-enamide] showed a viability at 48 h, 25 µM of 82.9%. With `Cc1cc(=O)[nH]c(-c2cccc(NC(=O)C(C#N)=Cc3ccco3)c2)n1` [8-B10, 2-cyano-3-(furan-2-yl)-N-[3-(4-methyl-6-oxo-1,6-dihydropyrimidin-2-yl)phenyl]prop-2-enamide] the viability at 48 h, 25 µM was 57.8%. In the case of `N#CC(=Cc1ccccc1Cl)C(=O)Nc1ccc(Cl)cc1` [8-B11, 3-(2-chlorophenyl)-N-(4-chlorophenyl)-2-cyanoprop-2-enamide], the viability at 48 h, 25 µM is reported as 113%. Compound `Cc1ccccc1N1C(=O)CSC1=C(C#N)C(=O)N1CCCCC1` [8-B12, 2-[3-(2-methylphenyl)-4-oxo-1,3-thiazolidin-2-ylidene]-3-oxo-3-(piperidin-1-yl)propanenitrile] has a viability at 48 h, 25 µM of 113%. Compound `Cc1ccsc1C=C(C#N)C(=O)N1CCN(c2ccccc2)CC1` [8-B13, 3-(3-methylthiophen-2-yl)-2-(4-phenylpiperazine-1-carbonyl)prop-2-enenitrile] has a viability at 48 h, 25 µM of 92.4%. `N#CC(=Cc1c(Cl)cccc1Cl)C(=O)NCCc1ccccc1` [8-B14, 2-cyano-3-(2,6-dichlorophenyl)-N-(2-phenylethyl)prop-2-enamide] showed a viability at 48 h, 25 µM of 2%. Compound `COc1ccccc1NC(=O)C(C#N)=Cc1ccc(C)s1` [8-B15, 2-cyano-N-(2-methoxyphenyl)-3-(5-methylthiophen-2-yl)prop-2-enamide] has a viability at 48 h, 25 µM of 103%. `N#CC(=Cc1ccc(O)cc1)C(=O)NCc1ccc(Cl)cc1` [8-B16, N-[(4-chlorophenyl)methyl]-2-cyano-3-(4-hydroxyphenyl)prop-2-enamide] gave a viability at 48 h, 25 µM of 102%. For `Cc1cc(C)c(NC(=O)C(C#N)=Cc2cccnc2)c(C)c1` [8-B17, 2-cyano-3-(pyridin-3-yl)-N-(2,4,6-trimethylphenyl)prop-2-enamide], the viability at 48 h, 25 µM was 122%. `Cc1c(C=C(C#N)C(=O)Nc2nccs2)cc(C#N)n1C` [8-B18, 2-cyano-3-(5-cyano-1,2-dimethyl-1H-pyrrol-3-yl)-N-(1,3-thiazol-2-yl)prop-2-enamide] showed a viability at 48 h, 25 µM of 94.1%. In the case of `N#CC(=Cc1ccncc1)C(=O)Nc1cccc(Cl)c1` [8-B19, N-(3-chlorophenyl)-2-cyano-3-(pyridin-4-yl)prop-2-enamide], the viability at 48 h, 25 µM is reported as 85.5%. In the case of `N#CC(=Cc1ccco1)C(=O)Nc1cccc2ncccc12` [8-B20, 2-cyano-3-(furan-2-yl)-N-(quinolin-5-yl)prop-2-enamide], the viability at 48 h, 25 µM is reported as 85.9%. `N#CC(=Cc1cccnc1)C(=O)Nc1ccc(F)cc1` [8-B21, 2-cyano-N-(4-fluorophenyl)-3-(pyridin-3-yl)prop-2-enamide] gave a viability at 48 h, 25 µM of 125%. `N#CC(=Cc1cccc([N+](=O)[O-])c1)C(=O)NCc1ccccc1` [8-B22, N-benzyl-2-cyano-3-(3-nitrophenyl)prop-2-enamide] showed a viability at 48 h, 25 µM of 32%. With `COc1ccc(C=C(C#N)C(=O)Nc2ccc(Cl)c(Cl)c2)cc1` [8-C03, 2-cyano-N-(3,4-dichlorophenyl)-3-(4-methoxyphenyl)prop-2-enamide] the viability at 48 h, 25 µM was 99.6%. For `N#CC(=Cc1ccc(N2CCCCC2)cc1)C(=O)Nc1nccs1` [8-C04, 2-cyano-3-[4-(piperidin-1-yl)phenyl]-N-(1,3-thiazol-2-yl)prop-2-enamide], the viability at 48 h, 25 µM was 97.1%. In the case of `COc1ccc(C=C(C#N)C(=O)Nc2ccc([N+](=O)[O-])cc2)cc1` [8-C05, 2-cyano-3-(4-methoxyphenyl)-N-(4-nitrophenyl)prop-2-enamide], the viability at 48 h, 25 µM is reported as 81.5%. Compound `N#CC(=Cc1ccc(-c2ccccc2)cc1)C(=O)NCc1ccccc1` [8-C06, N-benzyl-3-{[1,1'-biphenyl]-4-yl}-2-cyanoprop-2-enamide] has a viability at 48 h, 25 µM of 81.4%. `N#CC(=Cc1ccc(-c2cccc([N+](=O)[O-])c2)o1)C(=O)N1CCOCC1` [8-C07, 2-(morpholine-4-carbonyl)-3-[5-(3-nitrophenyl)furan-2-yl]prop-2-enenitrile] showed a viability at 48 h, 25 µM of 79.1%. `CC(C)NC(=O)C(C#N)=Cc1cc(F)ccc1F` [8-C08, 2-cyano-3-(2,5-difluorophenyl)-N-(propan-2-yl)prop-2-enamide] showed a viability at 48 h, 25 µM of 138%. For `COc1ccc(C=C(C#N)C(=O)NCc2ccccc2)cc1O` [8-C09, N-benzyl-2-cyano-3-(3-hydroxy-4-methoxyphenyl)prop-2-enamide], the viability at 48 h, 25 µM was 66.6%. Work on `N#CC(=Cc1cc(F)ccc1F)C(=O)Nc1ccc(F)cc1F` [8-C10, 2-cyano-N-(2,4-difluorophenyl)-3-(2,5-difluorophenyl)prop-2-enamide] yielded a viability at 48 h, 25 µM of 91.2%. With `N#CC(=Cc1ccc(Cl)cc1)C(=O)Nc1nccs1` [8-C11, 3-(4-chlorophenyl)-2-cyano-N-(1,3-thiazol-2-yl)prop-2-enamide] the viability at 48 h, 25 µM was 79%. With `CC(=O)Nc1ccc(NC(=O)C(C#N)=Cc2cc(F)ccc2F)cc1` [8-C12, 2-cyano-3-(2,5-difluorophenyl)-N-(4-acetamidophenyl)prop-2-enamide] the viability at 48 h, 25 µM was 57.6%. `N#CC(=Cc1ccccc1)C(=O)Nc1ccccc1F` [8-C13, 2-cyano-N-(2-fluorophenyl)-3-phenylprop-2-enamide] showed a viability at 48 h, 25 µM of 69.6%. Compound `Cc1ccc(C=C(C#N)C(=O)Nc2ccc(C(=O)O)cc2)o1` [8-C14, 4-[2-cyano-3-(5-methylfuran-2-yl)prop-2-enamido]benzoic acid] has a viability at 48 h, 25 µM of 109%. With `N#CC(=Cc1ccccc1Cl)C(=O)Nc1cccc2ncccc12` [8-C15, 3-(2-chlorophenyl)-2-cyano-N-(quinolin-5-yl)prop-2-enamide] the viability at 48 h, 25 µM was 51%. `COc1cccc(NC(=O)C(C#N)=Cc2ccc(C)cc2C)c1` [8-C16, 2-cyano-3-(2,4-dimethylphenyl)-N-(3-methoxyphenyl)prop-2-enamide] showed a viability at 48 h, 25 µM of 91.5%. In the case of `C=CCNC(=O)C(C#N)=Cc1cc(C)n(-c2ccc(C)cc2)c1C` [8-C17, 2-cyano-3-[2,5-dimethyl-1-(4-methylphenyl)-1H-pyrrol-3-yl]-N-(prop-2-en-1-yl)prop-2-enamide], the viability at 48 h, 25 µM is reported as 60.7%.
